Measured values from patent publication US20230167073A1 (Teijin Pharma Limited, priority 2020, published 2023).

What follows are compounds tested against T1, Human TRPC6 (Homo sapiens, UniProt Q9Y210) (assay: Evaluation of TRPC6 channel inhibitory activity (1), FLIPR Calcium 5 Assay Kit, OAG stimulation (Compound Nos. 1-1293)). Details: not given.
T1 construct: expressed in transfected cells
T1 sequence (Q9Y210 1-931): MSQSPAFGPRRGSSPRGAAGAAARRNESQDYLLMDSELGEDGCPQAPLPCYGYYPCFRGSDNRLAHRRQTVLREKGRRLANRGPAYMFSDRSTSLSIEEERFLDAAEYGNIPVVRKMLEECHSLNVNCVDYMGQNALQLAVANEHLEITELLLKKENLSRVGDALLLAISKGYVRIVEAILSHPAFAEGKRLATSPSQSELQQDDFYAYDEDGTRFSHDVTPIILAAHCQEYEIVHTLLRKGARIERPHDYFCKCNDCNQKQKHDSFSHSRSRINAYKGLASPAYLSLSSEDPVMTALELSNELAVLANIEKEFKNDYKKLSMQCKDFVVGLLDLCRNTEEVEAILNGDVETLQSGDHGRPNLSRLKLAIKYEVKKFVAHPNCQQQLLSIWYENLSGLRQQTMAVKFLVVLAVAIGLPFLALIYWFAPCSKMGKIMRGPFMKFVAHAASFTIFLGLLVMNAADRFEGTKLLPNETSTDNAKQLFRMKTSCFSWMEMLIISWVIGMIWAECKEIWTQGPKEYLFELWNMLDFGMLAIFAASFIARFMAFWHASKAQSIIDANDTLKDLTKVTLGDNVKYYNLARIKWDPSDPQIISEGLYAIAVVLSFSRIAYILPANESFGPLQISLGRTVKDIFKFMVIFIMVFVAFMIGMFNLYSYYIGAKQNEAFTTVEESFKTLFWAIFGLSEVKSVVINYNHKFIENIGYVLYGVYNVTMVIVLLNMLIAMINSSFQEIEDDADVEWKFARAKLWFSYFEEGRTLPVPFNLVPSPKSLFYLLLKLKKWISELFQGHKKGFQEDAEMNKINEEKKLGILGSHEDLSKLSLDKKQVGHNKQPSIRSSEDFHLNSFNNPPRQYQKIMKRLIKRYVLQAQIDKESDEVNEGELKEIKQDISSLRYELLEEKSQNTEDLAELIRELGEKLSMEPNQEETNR
Format: cell-based
Method in brief: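 Readout is pIC50 from four-parameter logistic fitting of inhibition of the OAG-evoked (30 μM final) fluorescence calcium signal. Human TRPC6 stable cells are dye-loaded with probenecid, and compound is applied 20 min ahead of agonist.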

Row | SMILES | IC50
1 | Cn1nc(N2C3CCC2COC3)cc1Oc1cc(C#N)ccc1-c1ncc(CN)cn1 [compound 944, 4-[5-(aminomethyl)pyrimidin-2-yl]-3-[2-methyl-5-(3-oxa-8-azabicyclo[3.2.1]octan-8-yl)pyrazol-3-yl]oxybenzonitrile] | 10 to 1000 nM

Same assay, conditions: Human TRPC6 stably-expressing cells, OAG 30 μM, FLIPR Calcium 5 Assay Kit; read-out: Inhibitory activity (pIC50 class) (converted)

Row | SMILES | IC50
2 | Cn1nc(-c2cccnn2)cc1Oc1cc(C#N)ccc1-c1ncc(CN)cn1 [compound 934, 4-[5-(aminomethyl)pyrimidin-2-yl]-3-(2-methyl-5-pyridazin-3-ylpyrazol-3-yl)oxybenzonitrile] | 10 to 1000 nM
3 | Cn1nc(-c2cncs2)cc1Oc1cc(C#N)ccc1-c1ncc(CN)cn1 [compound 935, 4-[5-(aminomethyl)pyrimidin-2-yl]-3-[2-methyl-5-(1,3-thiazol-5-yl)pyrazol-3-yl]oxybenzonitrile] | < 10 nM
4 | Cn1ccnc1-c1cc(Oc2cc(C#N)ccc2-c2ncc(CN)cn2)n(C)n1 [compound 936, 4-[5-(aminomethyl)pyrimidin-2-yl]-3-[2-methyl-5-(1-methylimidazol-2-yl)pyrazol-3-yl]oxybenzonitrile] | 10 to 1000 nM
5 | Cc1nn(CC(C)(C)C)cc1Oc1cc(C#N)ccc1-c1ncc(CCN)cn1 [compound 937, 4-[5-(2-aminoethyl)pyrimidin-2-yl]-3-[1-(2,2-dimethylpropyl)-3-methylpyrazol-4-yl]oxybenzonitrile] | < 10 nM
6 | Cc1c(Oc2cc(C#N)ccc2-c2ncc(CCN)cn2)cnn1CC(C)(C)C [compound 938, 4-[5-(2-aminoethyl)pyrimidin-2-yl]-3-[1-(2,2-dimethylpropyl)-5-methylpyrazol-4-yl]oxybenzonitrile] | 10 to 1000 nM
7 | Cc1nn(CC(C)C)c(C)c1Oc1cc(C#N)ccc1-c1ncc(CCN)cn1 [compound 939, 4-[5-(2-aminoethyl)pyrimidin-2-yl]-3-[3,5-dimethyl-1-(2-methylpropyl)pyrazol-4-yl]oxybenzonitrile] | 10 to 1000 nM
8 | Cc1nn(CC(F)F)c(C)c1Oc1cc(C#N)ccc1-c1ncc(CCN)cn1 [compound 940, 4-[5-(2-aminoethyl)pyrimidin-2-yl]-3-[1-(2,2-difluoroethyl)-3,5-dimethylpyrazol-4-yl]oxybenzonitrile] | > 1000 nM
9 | Cc1nn(-c2ccccn2)c(C)c1Oc1cc(C#N)ccc1-c1ncc(CCN)cn1 [compound 941, 4-[5-(2-aminoethyl)pyrimidin-2-yl]-3-(3,5-dimethyl-1-pyridin-2-ylpyrazol-4-yl)oxybenzonitrile] | > 1000 nM
10 | Cc1nn(C(C)C)c(C)c1Oc1cc(C#N)ccc1-c1ncc(CCN)cn1 [compound 942, 4-[5-(2-aminoethyl)pyrimidin-2-yl]-3-(3,5-dimethyl-1-propan-2-ylpyrazol-4-yl)oxybenzonitrile] | > 1000 nM
11 | Cc1nn(CC(F)(F)F)c(C)c1Oc1cc(C#N)ccc1-c1ncc(CCN)cn1 [compound 943, 4-[5-(2-aminoethyl)pyrimidin-2-yl]-3-[3,5-dimethyl-1-(2,2,2-trifluoroethyl)pyrazol-4-yl]oxybenzonitrile] | > 1000 nM
12 | Cn1nc(-c2ccnn2C)cc1Oc1cc(C#N)ccc1-c1ncc(CN)cn1 [compound 945, 4-[5-(aminomethyl)pyrimidin-2-yl]-3-[2-methyl-5-(2-methylpyrazol-3-yl)pyrazol-3-yl]oxybenzonitrile] | < 10 nM
13 | Cn1ccc(-c2cc(Oc3cc(C#N)ccc3-c3ncc(CN)cn3)n(C)n2)n1 [compound 946, 4-[5-(aminomethyl)pyrimidin-2-yl]-3-[2-methyl-5-(1-methylpyrazol-3-yl)pyrazol-3-yl]oxybenzonitrile] | 10 to 1000 nM
14 | Cn1cc(-c2cc(Oc3cc(C#N)ccc3-c3ncc(CN)cn3)n(C)n2)cn1 [compound 947, 4-[5-(aminomethyl)pyrimidin-2-yl]-3-[2-methyl-5-(1-methylpyrazol-4-yl)pyrazol-3-yl]oxybenzonitrile] | > 1000 nM
15 | Cn1nc(-c2ccncn2)cc1Oc1cc(C#N)ccc1-c1ncc(CCN)cn1 [compound 949, 4-[5-(2-aminoethyl)pyrimidin-2-yl]-3-(2-methyl-5-pyrimidin-4-ylpyrazol-3-yl)oxybenzonitrile] | < 10 nM
16 | Cn1nc(-c2cnccn2)cc1Oc1cc(C#N)ccc1-c1ncc(CCN)cn1 [compound 950, 4-[5-(2-aminoethyl)pyrimidin-2-yl]-3-(2-methyl-5-pyrazin-2-ylpyrazol-3-yl)oxybenzonitrile] | < 10 nM
17 | Cn1nc(-c2cncs2)cc1Oc1cc(C#N)ccc1-c1ncc(CCN)cn1 [compound 951, 4-[5-(2-aminoethyl)pyrimidin-2-yl]-3-[2-methyl-5-(1,3-thiazol-5-yl)pyrazol-3-yl]oxybenzonitrile] | < 10 nM
18 | Cn1nc(-c2cscn2)cc1Oc1cc(C#N)ccc1-c1ncc(CCN)cn1 [compound 952, 4-[5-(2-aminoethyl)pyrimidin-2-yl]-3-[2-methyl-5-(1,3-thiazol-4-yl)pyrazol-3-yl]oxybenzonitrile] | < 10 nM
19 | CCc1nn(CC(C)C)cc1Oc1cc(C#N)ccc1-c1ncc(CCN)cn1 [compound 953, 4-[5-(2-aminoethyl)pyrimidin-2-yl]-3-[3-ethyl-1-(2-methylpropyl)pyrazol-4-yl]oxybenzonitrile] | < 10 nM
20 | CCc1c(Oc2cc(C#N)ccc2-c2ncc(CCN)cn2)cnn1CC(C)C [compound 954, 4-[5-(2-aminoethyl)pyrimidin-2-yl]-3-[5-ethyl-1-(2-methylpropyl)pyrazol-4-yl]oxybenzonitrile] | 10 to 1000 nM
21 | CC(C)Cn1cc(Oc2cc(C#N)ccc2-c2ncc(CCN)cn2)c(C(F)(F)F)n1 [compound 955, 4-[5-(2-aminoethyl)pyrimidin-2-yl]-3-[1-(2-methylpropyl)-3-(trifluoromethyl)pyrazol-4-yl]oxybenzonitrile] | < 10 nM
22 | CN(C)C(=O)c1cc(Oc2cc(C#N)ccc2-c2ncc(CN)cn2)n(C)n1 [compound 956, 5-[2-[5-(aminomethyl)pyrimidin-2-yl]-5-cyanophenoxy]-N,N,1-trimethylpyrazole-3-carboxamide] | 10 to 1000 nM
23 | Cc1nc(-c2cc(Oc3cc(C#N)ccc3-c3ncc(CN)cn3)n(C)n2)cs1 [compound 957, 4-[5-(aminomethyl)pyrimidin-2-yl]-3-[2-methyl-5-(2-methyl-1,3-thiazol-4-yl)pyrazol-3-yl]oxybenzonitrile] | < 10 nM
24 | Cc1ncsc1-c1cc(Oc2cc(C#N)ccc2-c2ncc(CN)cn2)n(C)n1 [compound 958, 4-[5-(aminomethyl)pyrimidin-2-yl]-3-[2-methyl-5-(4-methyl-1,3-thiazol-5-y)pyrazol-3-yl]oxybenzonitrile] | < 10 nM
25 | Cc1csc(-c2cc(Oc3cc(C#N)ccc3-c3ncc(CN)cn3)n(C)n2)n1 [compound 959, 4-[5-(aminomethyl)pyrimidin-2-yl]-3-[2-methyl-5-(4-methyl-1,3-thiazol-2-yl)pyrazol-3-yl]oxybenzonitrile] | 10 to 1000 nM
26 | Cc1cnc(-c2cc(Oc3cc(C#N)ccc3-c3ncc(CN)cn3)n(C)n2)s1 [compound 960, 4-[5-(aminomethyl)pyrimidin-2-yl]-3-[2-methyl-5-(5-methyl-1,3-thiazol-2-yl)pyrazol-3-yl]oxybenzonitrile] | 10 to 1000 nM
27 | Cc1nnc(-c2cc(Oc3cc(C#N)ccc3-c3ncc(CN)cn3)n(C)n2)s1 [compound 961, 4-[5-(aminomethyl)pyrimidin-2-yl]-3-[2-methyl-5-(5-methyl-1,3,4-thiadiazol-2-yl)pyrazol-3-yl]oxybenzonitrile] | > 1000 nM
28 | Cc1ncc(-c2cc(Oc3cc(C#N)ccc3-c3ncc(CN)cn3)n(C)n2)s1 [compound 962, 4-[5-(aminomethyl)pyrimidin-2-yl]-3-[2-methyl-5-(2-methyl-1,3-thiazol-5-yl)pyrazol-3-yl]oxybenzonitrile] | 10 to 1000 nM
29 | Cc1scnc1-c1cc(Oc2cc(C#N)ccc2-c2ncc(CN)cn2)n(C)n1 [compound 963, 4-[5-(aminomethyl)pyrimidin-2-yl]-3-[2-methyl-5-(5-methyl-1,3-thiazol-4-yl)pyrazol-3-yl]oxybenzonitrile] | < 10 nM
30 | Cn1nc(C#N)cc1Oc1cc(C#N)ccc1-c1ccc(CCN)cn1 [compound 964, 5-[2-[5-(2-aminoethyl)pyridin-2-yl]-5-cyanophenoxy]-1-methylpyrazole-3-carbonitrile] | 10 to 1000 nM
31 | Cc1nc(Oc2cc(F)ccc2-c2ncc(CCN)cn2)cc(N2CCOCC2)n1 [compound 965, 2-[2-[4-fluoro-2-(2-methyl-6-morpholin-4-ylpyrimidin-4-yl)oxyphenyl]pyrimidin-5-yl]ethanamine] | 10 to 1000 nM
